Measured values taken from patent publication US10813354B2, “Herbicidal pyridazinone compounds” (SYNGENTA PARTICIPATIONS AG, priority 2016, dated 2020).

Legend:
Assay type in all cases: in vivo
Details in all cases: sprayed after 10 days cultivation, evaluated after 14 days
[1] = test system: ABUTH (Abutilon theophrasti); test: Post-emergence glasshouse herbicide test on ABUTH
Experimental: (§1) Seeds of a variety of test species HORVW (Hordeum vulgare—barley), ABUTH (Abutilon theophrasti), AMARE (Amaranthus retroflexus) and ECHCG (Echinochloa crus-galli) were sown in standard soil in pots. After cultivation for 10 days cultivation under controlled conditions in a glasshouse (at 24/16° C., day/night; 14 hours light; 65% humidity), the plants were sprayed with an aqueous spray solution derived from the formulation of the technical active ingredient in 0.6 ml acetone and 45 ml formulation solution containing 10.6% Emulsogen EL (Registry number 61791-12-6), 42.2% N-methyl pyrrolidone, 42.2% dipropylene glycol monomethyl ether (CAS RN 34590-94-8) and 0.2% X-77 (CAS RN 11097-66-8).
(§2) The test plants were then grown in a glasshouse under controlled conditions in a glasshouse (at 24/16° C., day/night; 14 hours light; 65% humidity) and watered twice daily. After 14 days, the test was evaluated (100=total damage to plant; 0=no damage to plant).

[2] = test system: AMARE (Amaranthus retroflexus); test: Post-emergence glasshouse herbicide test on AMARE
Experimental: as §1, §2

[3] = test system: ECHCG (Echinochloa crus-galli); test: Post-emergence glasshouse herbicide test on ECHCG
Experimental: as §1, §2

[4] = test system: HORVW (Hordeum vulgare—barley); test: Post-emergence glasshouse herbicide test, crop damage on barley
Experimental: as §1, §2

| Compound | ABUTH damage to plant (100=total damage to plant; 0=no damage to plant) ([1]; Rate 125 g/ha) | ABUTH damage to plant (100=total damage to plant; 0=no damage to plant) ([1]; Rate 250 g/ha) | AMARE damage to plant (100=total damage to plant; 0=no damage to plant) ([2]; Rate 125 g/ha) | AMARE damage to plant (100=total damage to plant; 0=no damage to plant) ([2]; Rate 250 g/ha) | ECHCG damage to plant (100=total damage to plant; 0=no damage to plant) ([3]; Rate 125 g/ha) | ECHCG damage to plant (100=total damage to plant; 0=no damage to plant) ([3]; Rate 250 g/ha) | HORVW damage to plant (100=total damage to plant; 0=no damage to plant) ([4]; Rate 125 g/ha) | HORVW damage to plant (100=total damage to plant; 0=no damage to plant) ([4]; Rate 250 g/ha) |
| --- | --- | --- | --- | --- | --- | --- | --- | --- |
| COc1ccc(-n2nc(C3CC3)cc(C(=O)C3C(=O)C(C)(C)C(=O)C(C)(C)C3=O)c2=O)cc1OC [Compound 1.11, 6-[6-cyclopropyl-2-(3,4-dimethoxyphenyl)-3-oxo-pyridazine-4-carbonyl]-2,2,4,4-tetramethyl-cyclohexane-1,3,5-trione] | 100 | 100 | 100 | 100 | 100 | 100 | 0 | 0 |
| COc1ccc(-n2nc(C)cc(C(=O)C3C(=O)CC(C)(C)CC3=O)c2=O)cc1OC [Compound 1.4] | 100 | 100 | 100 | 100 | 100 | 100 | 0 | 10 |
| COc1ccc(-n2nc(C)cc(C(=O)C3C(=O)CCCC3=O)c2=O)cc1OC [Compound 1.3, 2-[2-(3,4-Dimethoxyphenyl)-6-methyl-3-oxo-pyridazine-4-carbonyl]cyclohexane-1,3-dione] | 100 | 100 | 100 | 100 | 100 | 100 | 0 | 0 |
| COc1ccc(-n2nc(C)cc(C(=O)C3C(=O)C4CCC(C4)C3=O)c2=O)cc1OC (centres unmarked) [Compound 1.1, 3-[2-(3,4-dimethoxyphenyl)-6-methyl-3-oxo-pyridazine-4-carbonyl]bicyclo[3.2.1]octane-2,4-dione] | 100 | 100 | 100 | 100 | 100 | 100 | 0 | 0 |
| COc1ccc(-n2nc(C)cc(C(=O)C3C(=O)C(C)(C)C(=O)C(C)(C)C3=O)c2=O)cc1OC [Compound 1.5] | 100 | 100 | 100 | 100 | 90 | 90 | 0 | 0 |
| COc1ccc(-n2nc(C3CC3)cc(C(=O)C3C(=O)C4CCC(C4)C3=O)c2=O)cc1OC (centres unmarked) [Compound 1.9] | 100 | 100 | 90 | 100 | 100 | 100 | 0 | 10 |
| COc1ccc(-n2nc(C)cc(C(=O)C3C(=O)CC(C)CC3=O)c2=O)cc1OC (centres unmarked) [Compound 1.2] | 100 | 100 | 100 | 100 | 100 | 100 | 0 | 0 |
